# Reference: patent US11312712B2, “Azabenzimidazoles and their use as AMPA receptor modulators” (Janssen Pharmaceutica NV, priority 2015, dated 2022)
# Target: GluA1o-γ8 (GRIA1o-CACNG8 fusion construct) (Homo sapiens (Human), UniProt P42261+Q8WXS5)
# Assay: Calcium flux assay (FLIPR), inhibition of TARP γ8 dependent AMPA receptor activity
# Type: cell-based
# Details: GluA1o-γ8 (GRIA1o-CACNG8 fusion) in HEK293 cells, calcium flux after 15 μM glutamate
# Summary of the method: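 HEK293 cells stably expressing a 1:1 GRIA1o–CACNG8 fusion were loaded with Calcium-5/6 dye plus compound in pH 7.4 HEPES-buffered saline. FLIPR calcium flux after 15 μM glutamate was normalized to untreated and 10 μM CP465022 controls, and a four-parameter logistic fit gave pIC50.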
# Chain of GluA1o-γ8 (GRIA1o-CACNG8 fusion construct) (P42261 other isoform, or with tags, fused parts or gaps): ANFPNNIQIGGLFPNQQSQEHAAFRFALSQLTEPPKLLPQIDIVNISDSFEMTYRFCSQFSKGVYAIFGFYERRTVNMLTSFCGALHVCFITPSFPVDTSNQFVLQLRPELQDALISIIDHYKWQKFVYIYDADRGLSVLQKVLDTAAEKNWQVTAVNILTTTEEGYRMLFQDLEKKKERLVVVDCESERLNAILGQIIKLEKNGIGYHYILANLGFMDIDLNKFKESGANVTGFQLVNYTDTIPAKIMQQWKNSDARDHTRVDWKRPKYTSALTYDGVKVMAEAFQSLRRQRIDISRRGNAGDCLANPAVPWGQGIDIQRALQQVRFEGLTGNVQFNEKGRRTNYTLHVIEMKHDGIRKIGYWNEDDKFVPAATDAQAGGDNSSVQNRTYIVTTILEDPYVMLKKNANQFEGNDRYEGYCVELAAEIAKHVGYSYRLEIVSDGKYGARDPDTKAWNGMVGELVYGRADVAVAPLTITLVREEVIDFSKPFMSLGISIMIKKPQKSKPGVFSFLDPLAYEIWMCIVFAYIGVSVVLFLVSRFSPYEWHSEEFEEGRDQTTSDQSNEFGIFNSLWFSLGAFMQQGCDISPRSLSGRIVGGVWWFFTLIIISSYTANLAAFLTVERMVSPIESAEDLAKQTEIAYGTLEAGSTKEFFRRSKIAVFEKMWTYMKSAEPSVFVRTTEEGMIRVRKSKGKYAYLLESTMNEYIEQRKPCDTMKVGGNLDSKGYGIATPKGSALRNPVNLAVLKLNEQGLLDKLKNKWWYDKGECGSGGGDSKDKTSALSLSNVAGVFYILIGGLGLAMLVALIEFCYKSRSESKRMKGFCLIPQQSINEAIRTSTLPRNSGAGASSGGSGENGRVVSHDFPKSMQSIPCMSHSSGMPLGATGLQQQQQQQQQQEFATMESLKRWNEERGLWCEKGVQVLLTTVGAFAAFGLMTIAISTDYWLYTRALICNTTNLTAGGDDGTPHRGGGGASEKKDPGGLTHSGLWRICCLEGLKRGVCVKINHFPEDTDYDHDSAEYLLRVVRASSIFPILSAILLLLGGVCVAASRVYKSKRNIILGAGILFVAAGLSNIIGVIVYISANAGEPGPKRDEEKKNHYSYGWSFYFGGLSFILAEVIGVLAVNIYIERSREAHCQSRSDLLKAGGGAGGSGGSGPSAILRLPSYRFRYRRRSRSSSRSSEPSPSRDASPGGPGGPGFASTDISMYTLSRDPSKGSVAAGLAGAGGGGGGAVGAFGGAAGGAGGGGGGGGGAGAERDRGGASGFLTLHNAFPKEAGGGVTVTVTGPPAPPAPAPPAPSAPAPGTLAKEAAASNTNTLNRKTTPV
row,Structure (SMILES),IC50 [nM]
1,"O=C1Cc2cc(-n3c(-c4ccc(F)cc4)c(Br)c4ccc(F)nc43)ccc2N1 [Example 349, 5-[3-Bromo-6-fluoro-2-(4-fluorophenyl)pyrrolo[2,3-b]pyridin-1-yl]indolin-2-one]",3.98
2,"CC(C)Cc1nc2ccc(C(F)(F)F)nc2n1-c1ccc2[nH]ncc2c1 [Example 101, 3-(1H-Indazol-5-yl)-2-isobutyl-5-(trifluoromethyl)imidazo[4,5-b]pyridine]",25.1
3,"O=c1[nH]c2ccc(-n3c(-c4ccccc4)nc4c(C(F)F)ccnc43)cc2s1 [Example 69, 6-[7-(Difluoromethyl)-2-phenyl-imidazo[4,5-b]pyridin-3-yl]-3H-1,3-benzothiazol-2-one]",1.26
4,"CS(=O)(=O)Cc1nc2ccc(C(F)(F)F)nc2n1-c1ccc2[nH]ncc2c1 [Example 245, 3-(1H-indazol-5-yl)-2-(methylsulfonylmethyl)-5-(trifluoromethyl)imidazo[4,5-b]pyridine]",316
5,"CCOc1nc2ccc(C(F)(F)F)nc2n1-c1cc(C)c2[nH]ncc2c1 [Example 242, 2-Ethoxy-3-(7-methyl-1H-indazol-5-yl)-5-(trifluoromethyl)imidazo[4,5-b]pyridine]",0.398
6,"Cc1ccc2nc(-c3ccccc3Cl)n(-c3ccc4[nH]ncc4c3)c2n1 [Example 8, 2-(2-Chlorophenyl)-3-(1H-indazol-5-yl)-5-methyl-imidazo[4,5-b]pyridine]",63.1
7,"O=c1[nH]c2ccc(-n3c(-c4ccccc4)nc4ccc(N5CCCCC5)nc43)cc2s1 [Example 64, 6-[2-Phenyl-5-(1-piperidyl)imidazo[4,5-b]pyridin-3-yl]-3H-1,3-benzothiazol-2-one]",5.01
8,"Cc1cc(Cl)nc2c1nc(C1CCC1)n2-c1ccc2[nH]ncc2c1 [Example 137, 5-Chloro-2-cyclobutyl-3-(1H-indazol-5-yl)-7-methyl-imidazo[4,5-b]pyridine]",0.501
9,"CC(C)(C)c1nc2ccc(C(F)(F)F)nc2n1-c1ccc2[nH]c(=O)sc2c1 [Example 19, 6-[2-tert-Butyl-5-(trifluoromethyl)imidazo[4,5-b]pyridin-3-yl]-3H-1,3-benzothiazol-2-one]",1.26
10,"Cc1cc(-c2nc3ccc(C(F)(F)F)nc3n2-c2ccc3[nH]ncc3c2)ccc1F [Example 121, 2-(4-Fluoro-3-methyl-phenyl)-3-(1H-indazol-5-yl)-5-(trifluoromethyl)imidazo[4,5-b]pyridine]",0.501
11,"Cc1cc(-n2c(C)cc3cccnc32)cc2cn[nH]c12 [Example 375, 2-Methyl-1-(7-methyl-1H-indazol-5-yl)pyrrolo[2,3-b]pyridine]",10

# Now those with a lower IC50, led by results:
row,IC50 [nM],Structure (SMILES)
1,0.316,"O=c1[nH]c2ccc(-n3c(C(F)(F)F)nc4ccc(C(F)F)nc43)cc2s1 [Example 206, 6-[5-(difluoromethyl)-2-(trifluoromethyl)imidazo[4,5-b]pyridin-3-yl]-3H-1,3-benzothiazol-2-one]"
2,0.251,"Cc1ccc2nc(-c3ccnc(F)c3)n(-c3cc(Cl)c4[nH]ncc4c3)c2n1 [Example 327, 3-(7-Chloro-1H-indazol-5-yl)-2-(2-fluoro-4-pyridyl)-5-methyl-imidazo[4,5-b]pyridine]"
3,0.1,"CC[C@H](C)c1nc2ccc(C(F)(F)F)nc2n1-c1cc(C)c2[nH]ncc2c1 (single isomer, unassigned) [Example 407, (*S)-2-(sec-Butyl)-3-(7-methyl-1H-indazol-5-yl)-5-(trifluoromethyl)-3H-imidazo[4,5-b]pyridine]"
4,0.0631,"O=C1Cc2cc(-n3c(-c4ccc(F)cc4)cc4ccc(C(F)(F)F)nc43)ccc2N1 [Example 398, 5-[2-(4-Fluorophenyl)-6-(trifluoromethyl)pyrrolo[2,3-b]pyridin-1-yl]indolin-2-one]"
5,0.01,"Cc1cc(-n2c(C(F)F)cc3ccc(C(F)(F)F)nc32)cc2c1NC(=O)C2 [Example 336, 5-[2-(Difluoromethyl)-6-(trifluoromethyl)pyrrolo[2,3-b]pyridin-1-yl]-7-methyl-indolin-2-one]"
